Where two headings read alike, the source gives them in different places.
Key:
[1] = molecular target: T1, BSA (Bos taurus, UniProt P02769); design: Intact protein LC/MS covalent labelling, fragments in pools of five, 200 uM each, 4 °C; settings: 24 h, 4 °C, pool of five; 200 µM; covalent
T1 construct: gene ALB

[2] = molecular target: T2, NNMT (hNNMT) (Homo sapiens, UniProt P40261); design: Intact protein LC/MS covalent labelling, fragments in pools of five, 200 uM each, 4 °C; settings: 24 h, 4 °C, pool of five; 200 µM; covalent
T2 construct: wild type, N-terminal His6 tag kept (no cleavage described), E. coli, construct 31248 Da
T2 sequence (P40261 1-264): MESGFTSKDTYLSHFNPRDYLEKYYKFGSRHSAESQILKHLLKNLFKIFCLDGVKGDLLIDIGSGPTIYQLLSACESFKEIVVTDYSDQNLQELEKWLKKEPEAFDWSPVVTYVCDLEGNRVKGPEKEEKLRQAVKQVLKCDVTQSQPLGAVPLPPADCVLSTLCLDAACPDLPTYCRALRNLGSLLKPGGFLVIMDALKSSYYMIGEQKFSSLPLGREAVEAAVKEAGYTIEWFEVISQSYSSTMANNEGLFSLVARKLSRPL

[3] = molecular target: T3, NUDT7 (Homo sapiens, UniProt P0C024); design: Intact protein LC/MS covalent labelling, fragments in pools of five, 200 uM each, 4 °C; settings: 24 h, 4 °C, pool of five; 200 µM; covalent
T3 construct: residues 14-235, E. coli, pNIC28-Bsa4, N-terminal His6 tag removed by TEV, construct 26672 Da
T3 sequence (P0C024 14-235): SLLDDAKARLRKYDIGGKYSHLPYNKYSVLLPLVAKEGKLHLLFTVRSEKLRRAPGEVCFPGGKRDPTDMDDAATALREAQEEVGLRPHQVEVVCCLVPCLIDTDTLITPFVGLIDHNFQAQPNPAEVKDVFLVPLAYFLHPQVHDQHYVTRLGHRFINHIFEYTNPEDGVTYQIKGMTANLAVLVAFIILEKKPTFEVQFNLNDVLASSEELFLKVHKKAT

[4] = molecular target: T4, OTUB2 (OTUB2A) (Homo sapiens, UniProt Q96DC9); design: Intact protein LC/MS covalent labelling, fragments in pools of five, 200 uM each, 4 °C; settings: 24 h, 4 °C, pool of five; 200 µM; covalent
T4 construct: full length residues 1-234, E. coli BL21(DE3)-R3, His tag removed by TEV, construct 27312 Da
T4 sequence (Q96DC9 1-234): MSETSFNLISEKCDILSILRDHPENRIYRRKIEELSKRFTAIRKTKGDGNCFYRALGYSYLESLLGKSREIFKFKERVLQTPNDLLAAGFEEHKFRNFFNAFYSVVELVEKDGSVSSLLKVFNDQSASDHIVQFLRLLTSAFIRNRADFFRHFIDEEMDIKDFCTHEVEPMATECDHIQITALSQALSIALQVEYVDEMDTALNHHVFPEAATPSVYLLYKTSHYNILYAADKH

[5] = molecular target: T5, PCAF (Homo sapiens, UniProt Q92831); design: Intact protein LC/MS covalent labelling, fragments in pools of five, 200 uM each, 4 °C; settings: 24 h, 4 °C, pool of five; 200 µM; covalent
T5 construct: gene KAT2B
T5 sequence (Q92831 whole entry, the tested form may be a part): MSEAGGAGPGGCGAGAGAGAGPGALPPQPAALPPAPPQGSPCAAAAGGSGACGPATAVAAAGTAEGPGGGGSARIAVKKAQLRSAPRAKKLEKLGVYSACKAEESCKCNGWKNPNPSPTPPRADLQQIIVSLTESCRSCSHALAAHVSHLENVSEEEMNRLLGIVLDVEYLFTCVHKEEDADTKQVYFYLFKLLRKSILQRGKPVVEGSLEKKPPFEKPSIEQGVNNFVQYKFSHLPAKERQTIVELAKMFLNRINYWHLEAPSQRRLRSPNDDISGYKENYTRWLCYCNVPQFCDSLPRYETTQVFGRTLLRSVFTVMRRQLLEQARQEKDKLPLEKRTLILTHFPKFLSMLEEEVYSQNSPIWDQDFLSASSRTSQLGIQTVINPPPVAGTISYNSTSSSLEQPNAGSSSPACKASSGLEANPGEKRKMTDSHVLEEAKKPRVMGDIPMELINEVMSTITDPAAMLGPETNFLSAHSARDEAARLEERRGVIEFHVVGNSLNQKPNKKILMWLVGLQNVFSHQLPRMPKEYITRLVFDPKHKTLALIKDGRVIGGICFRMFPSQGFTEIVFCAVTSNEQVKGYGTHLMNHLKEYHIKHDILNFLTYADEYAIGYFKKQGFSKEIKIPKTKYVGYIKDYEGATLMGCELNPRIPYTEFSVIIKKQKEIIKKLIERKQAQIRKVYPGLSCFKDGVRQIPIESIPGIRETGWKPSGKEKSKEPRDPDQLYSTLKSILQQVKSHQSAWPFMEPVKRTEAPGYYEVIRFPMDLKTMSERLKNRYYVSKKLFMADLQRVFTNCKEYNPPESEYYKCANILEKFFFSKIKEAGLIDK

[6] = in vitro; design: species or system CCD841, HEK293; settings: human, hb2 cells, read-out: HB-2 Cells Viability (%)
[7] = in vitro; design: species or system HB2, HEK293; settings: human, ccd841 cells
[8] = in vitro; design: species or system HB2, CCD841; settings: human, hek293 cells

T1 sequence (P02769 whole entry, the tested form may be a part): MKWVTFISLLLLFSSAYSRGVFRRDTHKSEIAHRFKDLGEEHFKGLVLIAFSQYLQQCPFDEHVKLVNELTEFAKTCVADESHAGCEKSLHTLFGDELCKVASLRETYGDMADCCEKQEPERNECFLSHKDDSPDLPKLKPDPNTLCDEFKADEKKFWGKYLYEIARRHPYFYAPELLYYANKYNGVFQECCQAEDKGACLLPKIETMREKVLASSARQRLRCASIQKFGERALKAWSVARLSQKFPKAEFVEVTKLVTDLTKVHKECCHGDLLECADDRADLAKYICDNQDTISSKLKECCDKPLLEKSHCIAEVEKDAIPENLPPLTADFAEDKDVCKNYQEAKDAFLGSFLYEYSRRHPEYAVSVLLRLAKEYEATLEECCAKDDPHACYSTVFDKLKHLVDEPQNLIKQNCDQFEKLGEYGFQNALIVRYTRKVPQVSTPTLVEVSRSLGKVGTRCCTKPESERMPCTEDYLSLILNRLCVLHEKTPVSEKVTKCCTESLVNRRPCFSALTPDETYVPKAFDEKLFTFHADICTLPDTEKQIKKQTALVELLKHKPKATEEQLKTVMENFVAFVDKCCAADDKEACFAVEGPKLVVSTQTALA

Row | Structure (SMILES) | BSA [1] | NNMT [2] | NUDT7 [3] | OTUB2 [4] | PCAF [5] | viability at 48 h, 10 µM [6] [%] | viability at 48 h, 10 µM [7] [%] | viability at 48 h, 10 µM [8] [%]
1 | CS(=O)(=O)c1cccc(NC(=O)CCl)c1 [PCM-0102407] | 0 | 0 | 0 | 0.33 | 0 | 26.4 | 47 | 1.4
2 | O=C(CCl)NC(=O)c1ccccc1 [PCM-0102414] | 0 | 0 | 0 | 0 | 0 | 102 | 101 | 91.5
3 | O=C(CCl)Nc1ccccc1N1CCOCC1 [PCM-0102416] | 0 | 0 | 0 | 0 | 0 | 99.5 | 90.7 | 113
4 | COC(=O)c1c(NC(=O)CCl)sc2c1CCC(C)C2 (centres unmarked) [PCM-0102418] | 0 | 0.8 | 0.12 | 0 | 0 | 40.8 | 88.6 | 56.4
5 | C=CC(=O)N1CCCc2cc(C(=O)O)ccc21 [PCM-0102421] | 0 | 0.19 | 0 | 0 | 0 | 96.3 | 109 | 87.2
6 | O=C(CCl)NN1C(=O)NC2(CCCCC2)C1=O [PCM-0102424] | 0 | 0 | 0.06 | 0 | 0 | 95 | 94.7 | 103
7 | CC(C)c1cccc(NC(=O)CCl)c1 [PCM-0102429] | 0 | 0.52 | 0.1 | 0.23 | 0 | 17.7 | 57.3 | 17.7
8 | Cc1cc(CNC(=O)CCl)cc(C)c1O [PCM-0102431] | 0 | 0 | 0 | 0.64 | 0 | 85.7 | 96.3 | 84.6
9 | O=C(CCl)N1Cc2ccccc2C(c2ccccc2)C1 (centres unmarked) [PCM-0102432] | 0 | 0.65 | 0.33 | 0.17 | 0 | 38.2 | 12.4 | 20.6
10 | C=CC(=O)N1CCC(n2ccc(C(F)(F)F)n2)CC1 [PCM-0102435] | 0 | 0 | 0 | 0 | 0 | 96.3 | 93.3 | 85.7
11 | C=CC(=O)N1CC(S(=O)(=O)CC)C1 [PCM-0102442] | 0 | 0.14 | 0 | 0 | 0 | 94.8 | 100 | 77.7
12 | COc1ccc(C(=O)NC(=O)CCl)cc1 [PCM-0102454] | 0 | 0.36 | 0 | 0 | 0 | 97.1 | 103 | 96.7
13 | O=C(CCl)Nc1nc2c(s1)CCC2 [PCM-0102457] | 0 | 0.59 | 0.37 | 0 | 0 | 42.3 | 61 | 43.3
14 | O=C(CCl)Nc1nnc(-c2ccccc2)o1 [PCM-0102458] | 0 | 0.14 | 0 | 0.08 | 0 | 97.2 | 98 | 104
15 | C=CC(=O)N1CCC(C(=O)O)(c2ccccc2)CC1 [PCM-0102459] | 0 | 0 | 0 | 0 | 0 | 103 | 98.8 | 110
16 | O=C(CCl)NC(=O)c1cccc([N+](=O)[O-])c1 [PCM-0102460] | 0 | 0.12 | 0 | 0 | 0 | 99.8 | 95.9 | 117
17 | O=C(CCl)NC(=O)C1COc2ccccc2O1 (centres unmarked) [PCM-0102462] | 0 | 0 | 0 | 0 | 0 | 103 | 102 | 99.1
18 | O=C(CCl)NC(=O)c1ccccc1Br [PCM-0102464] | 0 | 0 | 0 | 0 | 0 | 104 | 113 | 107
19 | C=CC(=O)N1CCC(CN)CC1.Cl [PCM-0102467] | 0 | 0 | 0 | 0 | 0 | 95.4 | 105 | 91
20 | O=C(CCl)N=c1sccn1Cc1ccccc1 [PCM-0102469] | 0 | 0.25 | 0 | 0.11 | 0 | 42.3 | 5.2 | 7
21 | N#CCN(C(=O)CCl)c1ccccc1 [PCM-0102471] | 0.18 | 0.25 | 0 | 0.19 | 0 | 43.7 | 24.4 | 16
22 | C=CC(=O)N1CCC2(CCN(C)C2=O)CC1 [PCM-0102475] | 0 | 0 | 0 | 0 | 0 | 94.8 | 100 | 85.3
23 | O=C(CCl)N1CCNCC1.O=C(O)C(F)(F)F [PCM-0102476] | 0 | 0 | 0 | 0 | 0 | 101 | 100 | 92.4
24 | C=CC(=O)N1CCC(C(=O)Nc2cc(C)on2)CC1 [PCM-0102477] | 0 | 0 | 0 | 0 | 0 | 99.4 | 115 | 86.9
25 | C=CC(=O)N1CCCC(n2nc(C)nc2C)C1 (centres unmarked) [PCM-0102479] | 0 | 0 | 0 | 0 | 0 | 101 | 111 | 98.5

From paper PMC6556873, “Rapid Covalent-Probe Discovery by Electrophile-Fragment Screening” (Journal of the American Chemical Society, 2019)
